Values of other authors in patent US4988517A, “Method and composition for inhibiting colon carcinogenesis” (American Health Foundation, priority 1988, dated 1991).

Tests used:
[1] = 6 ppm selenium in the form of selenomethionine; cited from earlier work
[2] = test system: cancer induced by a variety of chemical carcinogens; conditions: diet or drinking water; colon, mammary gland, pancreas; cited from earlier work
colon carcinogenesis = conditions: initiation phase; cited from earlier work
[3] = rat, in vivo; cited from earlier work

Row | SMILES | Liver damage [1] | Protection against cancer induction [2] | Inhibition of colon carcinogenesis (colon carcinogenesis) | Toxicity relative to BSC [3]
1 | C[Se]CC[C@H](N)C(=O)O [selenomethionine] | caused liver damage as indicated by extensive necrosis and fibrosis | – | – | –
2 | O=[Se](O)O [sodium selenite] | – | protects against cancer induced by a variety of chemical carcinogens | does not inhibit colon carcinogenesis during the initiation phase | more toxic than BSC
